Measured values as given in BindingDB's records for doi:10.7270/Q2BK19S0 (The Scripps Research Institute Molecular Screening Center, 2010).

Target: Photoreceptor-specific nuclear receptor (Homo sapiens, UniProt Q9Y5X4)
Assay: ligands suppressing NR2E3 nuclear receptor activity – biochemical, TR-FRET, dose response (AID 463256)

Chain of Photoreceptor-specific nuclear receptor (Q9Y5X4 whole entry): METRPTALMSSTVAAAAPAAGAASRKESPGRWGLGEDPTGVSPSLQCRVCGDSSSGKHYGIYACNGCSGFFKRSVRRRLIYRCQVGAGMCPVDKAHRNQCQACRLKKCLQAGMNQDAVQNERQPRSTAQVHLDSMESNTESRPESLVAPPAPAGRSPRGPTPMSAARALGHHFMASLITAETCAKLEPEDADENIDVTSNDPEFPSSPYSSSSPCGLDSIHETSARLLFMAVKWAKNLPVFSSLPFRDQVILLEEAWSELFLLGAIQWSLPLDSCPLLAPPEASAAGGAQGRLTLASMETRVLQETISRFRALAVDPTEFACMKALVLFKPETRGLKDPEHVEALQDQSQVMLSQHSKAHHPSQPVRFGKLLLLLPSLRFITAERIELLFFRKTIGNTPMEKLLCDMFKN

IC50: 13.4 µM
Compound: COc1ccc(-n2cc(O)c(-c3nc(-c4ccccc4)cs3)c2N)cc1 [5-amino-1-(4-methoxyphenyl)-4-(4-phenyl-1,3-thiazol-2-yl)-2H-pyrrol-3-one]
